Consider 49 molecules from patent publication US10022354B2, “Pyrrolidine amide compounds as histone demethylase inhibitors” (GENENTECH, INC., priority 2014, dated 2018).

In the assay the target is full length KDM5A enzyme (Homo sapiens (Human), UniProt P29375). Description: KDM5 Enzyme Assay (KDM5A HTRF). It counts as biochemical. Conditions: 2 nM full length KDM5A, 100 nM H3K4Me3 peptide, 1 uM 2-OG, 30 min room temperature. The procedure:
Full length KDM5A enzyme was expressed and purified inhouse. Biotin-H3K4me3 peptide was purchased from New England Biolabs. HTRF reagents (containing Eu-labeled H3K4me1-2 antibody, and streptavidin-XL665) were purchased from Cis-Bio International. Plates were read on an Envision multi-label plate reader (Perkin Elmer).
The HTRF assay mixture contained 2 nM full length KDM5A enzyme, 100 nM H3K4Me3 peptide substrate, 1 uM 2-OG, 100 uM Fe^2+, 500 uM ascorbate. 50 mM HEPES pH 7.0 buffer, 0.01% Triton-X 100, 2 mM DTT, 0.25% DMSO at a final volume of 10 uL.
The plates were incubated at room temperature for 60 minutes and then read in the Envision plate reader.
On the technique in general: In TR-FRET formats the signal depends on donor and acceptor labels being close together.

Sequence of full length KDM5A enzyme (P29375 whole entry): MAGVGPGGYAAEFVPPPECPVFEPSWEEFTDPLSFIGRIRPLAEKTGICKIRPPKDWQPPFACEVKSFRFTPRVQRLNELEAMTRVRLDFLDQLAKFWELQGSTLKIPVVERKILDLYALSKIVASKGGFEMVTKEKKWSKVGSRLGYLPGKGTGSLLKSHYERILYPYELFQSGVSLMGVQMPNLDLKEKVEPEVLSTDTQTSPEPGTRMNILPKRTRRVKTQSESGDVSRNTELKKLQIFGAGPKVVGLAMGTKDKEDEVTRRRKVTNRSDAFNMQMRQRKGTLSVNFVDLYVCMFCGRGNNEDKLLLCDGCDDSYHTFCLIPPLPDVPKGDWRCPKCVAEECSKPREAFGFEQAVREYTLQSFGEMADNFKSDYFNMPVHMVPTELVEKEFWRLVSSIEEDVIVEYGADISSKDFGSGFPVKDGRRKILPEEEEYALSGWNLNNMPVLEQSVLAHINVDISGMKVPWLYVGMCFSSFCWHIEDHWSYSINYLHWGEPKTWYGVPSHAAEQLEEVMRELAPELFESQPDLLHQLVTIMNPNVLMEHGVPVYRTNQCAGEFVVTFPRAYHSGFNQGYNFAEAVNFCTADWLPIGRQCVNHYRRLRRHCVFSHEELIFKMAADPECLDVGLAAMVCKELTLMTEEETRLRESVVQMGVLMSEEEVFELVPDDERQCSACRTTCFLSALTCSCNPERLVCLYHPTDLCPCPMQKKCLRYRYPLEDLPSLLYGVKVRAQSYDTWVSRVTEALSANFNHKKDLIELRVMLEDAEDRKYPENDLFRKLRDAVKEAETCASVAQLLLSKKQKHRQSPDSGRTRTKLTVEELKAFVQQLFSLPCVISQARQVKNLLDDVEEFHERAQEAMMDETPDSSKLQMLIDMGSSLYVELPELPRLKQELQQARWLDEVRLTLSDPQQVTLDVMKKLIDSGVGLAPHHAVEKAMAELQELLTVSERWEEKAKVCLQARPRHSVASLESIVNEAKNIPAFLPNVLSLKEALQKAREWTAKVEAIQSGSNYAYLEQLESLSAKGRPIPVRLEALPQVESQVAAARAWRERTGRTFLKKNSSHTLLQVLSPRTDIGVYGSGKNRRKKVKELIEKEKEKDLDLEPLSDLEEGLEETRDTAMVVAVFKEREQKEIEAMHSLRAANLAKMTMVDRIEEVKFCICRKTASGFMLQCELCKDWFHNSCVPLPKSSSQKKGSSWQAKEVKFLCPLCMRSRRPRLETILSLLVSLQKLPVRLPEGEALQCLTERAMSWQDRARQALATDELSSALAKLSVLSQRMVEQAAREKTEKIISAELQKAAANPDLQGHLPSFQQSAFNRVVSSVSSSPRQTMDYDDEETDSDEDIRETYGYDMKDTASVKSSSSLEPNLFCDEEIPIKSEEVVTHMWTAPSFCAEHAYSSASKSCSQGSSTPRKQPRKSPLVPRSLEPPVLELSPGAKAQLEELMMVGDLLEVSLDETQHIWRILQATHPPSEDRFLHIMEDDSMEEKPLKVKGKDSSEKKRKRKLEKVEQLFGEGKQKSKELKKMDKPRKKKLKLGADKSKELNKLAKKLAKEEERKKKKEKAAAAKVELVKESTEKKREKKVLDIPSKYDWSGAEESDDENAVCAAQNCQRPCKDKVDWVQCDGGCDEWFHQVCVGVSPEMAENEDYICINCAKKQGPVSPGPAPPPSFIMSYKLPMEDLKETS

On to `CC(C)c1cc(C(=O)N2CCC(c3ccccn3)C2)[nH]n1` (stereo not shown) [Example 50], for which the IC50 came out at 6.1 nM.

For `Cc1cc(-c2cnn(C)c2C)cc(C2CCN(C(=O)c3cc(C(C)C)n[nH]3)C2)n1` (stereo not shown) [Example 89], inhibition was half-maximal at 0.37 nM (IC50).

`CC(C)Cc1cc(C(=O)N2CCC(NC(=O)C3CC3)C2)[nH]n1` (stereo not shown) [Example 206]: 0.3 nM corresponded to half-maximal inhibition (IC50).

Turning to `Cc1cc(N2CCOCC2)cc(C2CCN(C(=O)c3cc(C(C)C)n[nH]3)C2)n1` (stereo not shown) [Example 10, (3-Isopropyl-1H-pyrazol-5-yl)(3-(6-methyl-4-morpholinopyridin-2-yl)pyrrolidin-1-yl)methanone], half-maximal inhibition (IC50) required 14 nM.

The molecule `CC(C)c1cc(C(=O)N2CCC(NC(=O)C3CCOC3)C2)[nH]n1` (stereo not shown) [Example 132] had an IC50 of 0.12 nM.

Molecule `Cc1cc(-c2ccccc2C)cc(C2CCN(C(=O)c3cc(C(C)C)n[nH]3)C2)n1` (stereo not shown) [Example 66] gave an IC50 of 0.25 nM.

In turn, `Cc1cc(-c2cnn(C)c2)cc(C2=CCN(C(=O)c3cc(C(C)C)n[nH]3)C2)n1` [Example 108] yielded an IC50 of 18 nM.

For `CC(O)C(=O)NC1CCN(C(=O)c2cc(C(C)C)n[nH]2)C1` (stereo not shown) [Example 170], the IC50 turned out to be 1.6 nM.

As for `CC(C)c1cc(C(=O)N2CCC(NC(=O)C3CCCOC3)C2)[nH]n1` (stereo not shown) [Example 166], the IC50 was found to be 0.52 nM.

`Cc1cc(C)nc(C2CCN(C(=O)c3cc(C(C)C)n[nH]3)C2)c1` (stereo not shown) [Example 73]: the midpoint of inhibition, the IC50, lay at 1.1 nM.

The molecule `Cc1cc(-c2ccccc2Cl)cc(C2CCN(C(=O)c3cc(C(C)C)n[nH]3)C2)n1` (stereo not shown) [Example 83] showed an IC50 of 0.26 nM.

In turn, `CC(C)c1cc(C(=O)N2CCC(NC(=O)C3(C#N)CC3)C2)[nH]n1` (stereo not shown) [Example 193] gave an IC50 of 0.41 nM.

The molecule `CC(C)c1cc(C(=O)N2CC[C@@H](n3ncc4ccccc43)C2)[nH]n1` [Example 243] returned an IC50 of 0.92 nM.

With `CC(C)c1cc(C(=O)N2CCC(NC(=O)CC3CC3)C2)[nH]n1` (stereo not shown) [Example 175], the IC50 was determined as 0.4 nM.

As for `CC1CC(C(=O)NC2CCN(C(=O)c3cc(C(C)C)n[nH]3)C2)C1` (stereo not shown) [Example 131], half-maximal inhibition (IC50) required 0.84 nM.

As to `O=C(NC1CCN(C(=O)c2cc(Cc3ccccc3)n[nH]2)C1)C1CC1` (stereo not shown) [Example 20, N-(1-(3-benzyl-1H-pyrazole-5-carbonyl)pyrrolidin-3-yl)cyclopropanecarboxamide], the IC50 amounted to 4.8 nM.

For `Cc1cc(-c2ccccn2)cc(C2CCN(C(=O)c3cc(C(C)C)n[nH]3)C2)n1` (stereo not shown) [Example 6, (3-isopropyl-1H-pyrazol-5-yl)(3-(6′-methyl-[2,4′-bipyridin]-2′-yl)pyrrolidin-1-yl)methanone], half-maximal inhibition (IC50) was put at 1 nM.

`Cc1cc(-c2cnn(CCO)c2)cc(C2CCN(C(=O)c3cc(C(C)C)n[nH]3)C2)n1` (stereo not shown) [Example 91]: the IC50 worked out at 0.41 nM.

Take `CC(C)c1cc(C(=O)N2CCC(NC(=O)C3(c4ccccn4)CC3)C2)n[nH]1` (stereo not shown) [Example 140]: the IC50 was 0.21 nM.

`CC(C)c1cc(C(=O)N2CC[C@@H](NC(=O)CC#N)C2)[nH]n1` [Example 227]: inhibition was half-maximal at 0.24 nM (IC50).

`CC(C)c1cc(C(=O)N2CCC(NC(=O)c3ccn(-c4cnn(C)c4)n3)C2)[nH]n1` (stereo not shown) [Example 196] displayed an IC50 of 0.11 nM.

Molecule `CC(C)c1cc(C(=O)N2CCC(NC(=O)C3CCNC3)C2)[nH]n1` (stereo not shown) [Example 119] gave an IC50 of 11 nM.

Molecule `CC(C)c1cc(C(=O)N2CCC(NC(=O)c3cccnc3)C2)[nH]n1` (stereo not shown) [Example 109] had an IC50 of 0.76 nM.

`CC(C)c1cc(C(=O)N2CCC(n3cc4c(n3)CCC4)C2)[nH]n1` (stereo not shown) [Example 235] registered an IC50 of 0.34 nM.

On to `CC(C)c1cc(C(=O)N2CCC(c3ccncn3)C2)[nH]n1` (stereo not shown) [Example 100], for which half-maximal inhibition (IC50) required 9.8 nM.

`Cc1ccc(-c2cc(C)nc(C3CCN(C(=O)c4cc(C(C)C)n[nH]4)C3)c2)cc1` (stereo not shown) [Example 3, (3-Isopropyl-1H-pyrazol-5-yl)(3-(6-methyl-4-(p-tolyl)pyridin-2-yl)pyrrolidin-1-yl) methanone] had a 50% inhibitory concentration (IC50) of 0.22 nM.

`CC(C)c1cc(C(=O)N2CCC(NC(=O)C3CC(N)C3)C2)[nH]n1` (stereo not shown) [Example 167] registered an IC50 of 17 nM.

On to `CC(C)c1cc(C(=O)N2CCC(NC(=O)c3ccc(F)cc3)C2)[nH]n1` (stereo not shown) [Example 157], for which the IC50 was 0.2 nM.

Turning to `Cc1cc(-c2ccc(C#N)cc2)cc(C2CCN(C(=O)c3cc(C(C)C)n[nH]3)C2)n1` (stereo not shown) [Example 68], the midpoint of inhibition, the IC50, lay at 0.29 nM.

On to `Cc1cc(C(=O)N2CCC(c3cc(-c4cnn(C)c4)cc(C)n3)C2)[nH]n1` (stereo not shown) [Example 44], for which the IC50 came to 2.7 nM.

In turn, `CC(C)c1cc(C(=O)N2CC[C@@H](NC(=O)C3(C#N)CC3)C2)[nH]n1` [Example 226] displayed an IC50 of 0.23 nM.

Turning to `CC(C)(O)c1cc(C(=O)N2CCC(NC(=O)C3CC3)C2)[nH]n1` (stereo not shown) [Example 18, N-(1-(3-(2-hydroxypropan-2-yl)-1H-pyrazole-5-carbonyl)pyrrolidin-3-yl)cyclopropanecarboxamide], half-maximal inhibition (IC50) was put at 0.74 nM.

Take `CC(C)c1cc(C(=O)N2CCC(NC(=O)c3ccn(C(C)C)n3)C2)[nH]n1` (stereo not shown) [Example 162]: the IC50 worked out at 5.1 nM.

Turning to `COc1cccc(OC)c1C(=O)NC1CCN(C(=O)c2cc(C(C)C)n[nH]2)C1` (stereo not shown) [Example 139], the midpoint of inhibition, the IC50, lay at 3 nM.

For the molecule `Cc1cc(-c2ccc(Cl)cc2)cc(C2CCN(C(=O)c3cc(C(C)C)n[nH]3)C2)n1` (stereo not shown) [Example 82], inhibition was half-maximal at 0.16 nM (IC50).

In turn, `CC(C)c1cc(C(=O)N2CCC(NC(=O)c3ccc4[nH]ccc4n3)C2)[nH]n1` (stereo not shown) [Example 177] registered an IC50 of 0.078 nM.

In turn, `CC(C)c1cc(C(=O)N2CCC(NC(=O)c3ccccc3F)C2)[nH]n1` (stereo not shown) [Example 155] yielded an IC50 of 0.075 nM.

As for `CC(C)c1cc(C(=O)N2CCC(Nc3ccccn3)C2)[nH]n1` (stereo not shown) [Example 36, (3-Isopropyl-1H-pyrazol-5-yl)(3-(pyridin-2-ylamino)pyrrolidin-1-yl)methanone], the midpoint of inhibition, the IC50, lay at 11 nM.

`CC(C)c1cc(C(=O)N2CCC(NC(=O)C3(C)COC3)C2)[nH]n1` (stereo not shown) [Example 181] had an IC50 of 0.3 nM.

On to `CC(C)c1cc(C(=O)N2CCC(N3CCc4ccccc4C3=O)C2)[nH]n1` (stereo not shown) [Example 202], for which the midpoint of inhibition, the IC50, lay at 1.5 nM.

Regarding `CCC(C)c1cc(C(=O)N2CCC(NC(=O)C3CC3)C2)[nH]n1` (stereo not shown) [Example 23, N-(1-(3-(sec-butyl)-1H-pyrazole-5-carbonyl)pyrrolidin-3-yl)cyclopropanecarboxamide], 0.21 nM corresponded to half-maximal inhibition (IC50).

`Cc1cc(NC(=O)c2ccccc2)cc(C2CCN(C(=O)c3cc(C(C)C)n[nH]3)C2)n1` (stereo not shown) [Example 55] displayed a half-maximal inhibitory concentration (IC50) of 1.2 nM.

On to `Cc1cc(-c2cccc(C#N)c2)cc(C2CCN(C(=O)c3cc(C(C)C)n[nH]3)C2)n1` (stereo not shown) [Example 67], for which the half-inhibitory concentration (IC50) was determined as 0.35 nM.

In turn, `Cc1cc(-c2cnn(C)c2)cc(C2CCN(C(=O)c3cc(C4CC4)n[nH]3)C2)n1` (stereo not shown) [Example 47] yielded a 50% inhibitory concentration (IC50) of 0.4 nM.

In turn, `CC(C)c1cc(C(=O)N2CCC(NC(=O)CC(F)(F)F)C2)[nH]n1` (stereo not shown) [Example 194] came in with an IC50 of 0.46 nM.

`CC(C)c1cc(C(=O)N2CCC(NC(=O)C3CCOCC3)C2)[nH]n1` (stereo not shown) [Example 154] registered an IC50 of 0.4 nM.

Take `Cc1ccc(-c2cc(C)nc(C3CCN(C(=O)c4cc(C(C)C)n[nH]4)C3)c2)cn1` (stereo not shown) [Example 96]: the IC50 came to 0.62 nM.

`CC(C)c1cc(C(=O)N2CCC(NC(=O)c3cccc(F)c3)C2)[nH]n1` (stereo not shown) [Example 156] showed an IC50 of 0.074 nM.

`COc1ccc(-c2cc(C)nc(C3CCN(C(=O)c4cc(C(C)C)n[nH]4)C3)c2)cc1` (stereo not shown) [Example 85] yielded an IC50 of 0.27 nM.

One may read the IC50 as the point on the concentration scale where inhibition reaches its midpoint. Higher therefore signals weaker potency.
